In patent US11912668B2, “GCN2 and perk kinase inhibitors and methods of use thereof” (Deciphera Pharmaceuticals, LLC, priority 2020, dated 2024):

Assays:
GCN2 kinase = GCN2 kinase (Homo sapiens (Human), UniProt Q9P2K8); experiment: Biochemical assay for GCN2 (TR-FRET kinase activity assay); conditions: 1 mM ATP, 3-hour incubation
How it was run: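 TR-FRET assay with 2 nM GCN2, 130 nM GFP-eIF2α substrate, 0.2 mg/mL E. coli tRNA and 1 mM ATP; compounds (0.5% DMSO) reacted 3 h. Stopped with 20 mM EDTA plus 2 nM Tb-anti-peIF2α (pSer52), 60 min RT; 520/490 ratio converted to % inhibition, IC50 from four-parameter fit.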

PERK kinase = PERK kinase (Homo sapiens (Human), UniProt Q9NZJ5); experiment: Biochemical assay for PERK (coupled pyruvate kinase/lactate dehydrogenase assay); conditions: 1 mM ATP, rate from 2-3 h time frame
Chain of PERK kinase (Q9NZJ5 other isoform, or with tags, fused parts or gaps): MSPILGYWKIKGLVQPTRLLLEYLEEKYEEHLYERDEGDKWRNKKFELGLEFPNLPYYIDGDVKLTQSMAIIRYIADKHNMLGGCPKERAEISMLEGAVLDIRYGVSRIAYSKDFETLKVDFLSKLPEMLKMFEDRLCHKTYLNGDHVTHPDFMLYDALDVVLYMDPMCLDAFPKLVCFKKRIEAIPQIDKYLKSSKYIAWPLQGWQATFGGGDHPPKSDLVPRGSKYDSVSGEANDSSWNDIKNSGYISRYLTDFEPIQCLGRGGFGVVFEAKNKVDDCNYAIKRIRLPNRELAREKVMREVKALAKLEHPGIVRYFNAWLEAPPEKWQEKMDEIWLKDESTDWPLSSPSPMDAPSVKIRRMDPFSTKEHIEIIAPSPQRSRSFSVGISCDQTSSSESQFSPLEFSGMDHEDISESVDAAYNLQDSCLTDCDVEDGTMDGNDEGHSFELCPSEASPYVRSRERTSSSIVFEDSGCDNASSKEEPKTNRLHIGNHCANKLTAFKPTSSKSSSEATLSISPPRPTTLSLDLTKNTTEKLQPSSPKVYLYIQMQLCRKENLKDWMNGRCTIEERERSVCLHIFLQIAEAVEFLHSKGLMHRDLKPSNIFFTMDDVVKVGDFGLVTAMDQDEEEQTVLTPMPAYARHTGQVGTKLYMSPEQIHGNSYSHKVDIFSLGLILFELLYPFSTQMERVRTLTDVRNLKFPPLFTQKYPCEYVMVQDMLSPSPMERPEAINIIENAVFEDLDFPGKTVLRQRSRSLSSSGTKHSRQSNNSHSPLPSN
How it was run: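 Coupled pyruvate kinase/lactate dehydrogenase readout of ATP hydrolysis via NADH oxidation (A340), 10 nM PERK, 0.25 mg/mL myelin basic protein, 1 mM ATP, pH 7.5 Tris/MgCl2 buffer, 1% DMSO. Absorbance followed 6 h at 30° C; rate from the 2-3 h window, normalised to no-compound and known-inhibitor controls, IC50 fitted.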

CCRF-CEM leukemia cells = experiment: CCRF-CEM ASNase cell proliferation assay, phenotypic assay for cellular inhibition of GCN2; format: cell-based; conditions: Homo sapiens; ASNase treated CCRF-CEM cells, 1 mU/mL ASNase, 72 h
How it was run: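 Cells were seeded at ten thousand per well in RPMI-1640 with 10% heat-inactivated FBS and treated in triplicate with serially diluted compound plus 1 mU/mL ASNase for 72 h at 37 °C, 5% CO2. Resazurin was then added for 6 h, with fluorescence read at ex 540/em 600 nm to derive IC50 values.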

[1] = test system: phospho-GCN2 (Thr899) in HCT116 colorectal cancer cells; experiment: HCT116 amino acid starved (-AA) phospho-GCN2 assay (Western blot); format: cell-based; conditions: Homo sapiens, HCT-116, 4 h, read-out: HCT116-AA pGCN2 Western Blot
How it was run: (§1)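 HCT116 cells switched to amino-acid-free EBSS (10% dialyzed FBS, 5.5 mM glucose, vitamins) with serial compound dilutions for 4 h at 37° C. Lysates Western blotted for phospho-GCN2 (Thr899), total GCN2, ATF4 and beta-actin; IC50 values derived from quantified bands.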

[2] = test system: ATF4 in HCT116 colorectal cancer cells; experiment: HCT116 amino acid starved (-AA) ATF4 assay (Western blot); format: cell-based; conditions: Homo sapiens, HCT-116, 4 h
How it was run: as §1

[3] = test system: ATF4 in CCRF-CEM leukemia cells (PERK); experiment: CCRF-CEM TG ATF4 ELISA, phenotypic assay for cellular inhibition of PERK preactivated by thapsigargin; format: cell-based; conditions: Homo sapiens; Thapsigargin (1 μM) stimulated CCRF-CEM cells
[4] = test system: ATF4 in H929 multiple myeloma cells; experiment: H929 ATF4 ELISA assay (stimulation of cellular ATF4); format: cell-based; conditions: 4 h, no thapsigargin
Protocol: H929 multiple myeloma cells (catalog #CRL-9068) were obtained from the American Type Culture Collection (ATTC, Manassas, VA). Briefly, cells were grown in RPMI-1640 medium supplemented with 20% heat-inactivated fetal bovine serum (catalog #A3840002, ThermoFisher Scientific, Waltham, MA), 1% Penicillin/Streptomycin/L-Glutamine (catalog #10378016, ThermoFisher Scientific, Waltham, MA), and 0.05 mM 2-mercaptoethanol (catalog #21985-023, ThermoFisher Scientific, Waltham, MA) at 37° C., 5% CO2, and 95% humidity. Cells were expanded until reaching one million five hundred thousand cells per mL at which time they were subcultured or harvested for assay use. One million five hundred thousand cells per well in 1 mL complete growth medium were dispensed into 12-well plates and incubated overnight. A serial dilution of test compound was added, and cells were incubated at 37° C., 5% CO2, and 95% for four hours. Cells were lysed then ATF4 levels were measured using an ELISA assay (Proteintech, Rosemont, IL). Absorbance is measured at 450 nm and 544 nM using a Synergy2 or equivalent reader (Biotek, Winooski VT). Data were analyzed using PRISM software (Graphpad, San Diego, CA) to calculate fold stimulation of cellular ATF4 relative to vehicle treated control.

Chain of GCN2 kinase (Q9P2K8 whole entry): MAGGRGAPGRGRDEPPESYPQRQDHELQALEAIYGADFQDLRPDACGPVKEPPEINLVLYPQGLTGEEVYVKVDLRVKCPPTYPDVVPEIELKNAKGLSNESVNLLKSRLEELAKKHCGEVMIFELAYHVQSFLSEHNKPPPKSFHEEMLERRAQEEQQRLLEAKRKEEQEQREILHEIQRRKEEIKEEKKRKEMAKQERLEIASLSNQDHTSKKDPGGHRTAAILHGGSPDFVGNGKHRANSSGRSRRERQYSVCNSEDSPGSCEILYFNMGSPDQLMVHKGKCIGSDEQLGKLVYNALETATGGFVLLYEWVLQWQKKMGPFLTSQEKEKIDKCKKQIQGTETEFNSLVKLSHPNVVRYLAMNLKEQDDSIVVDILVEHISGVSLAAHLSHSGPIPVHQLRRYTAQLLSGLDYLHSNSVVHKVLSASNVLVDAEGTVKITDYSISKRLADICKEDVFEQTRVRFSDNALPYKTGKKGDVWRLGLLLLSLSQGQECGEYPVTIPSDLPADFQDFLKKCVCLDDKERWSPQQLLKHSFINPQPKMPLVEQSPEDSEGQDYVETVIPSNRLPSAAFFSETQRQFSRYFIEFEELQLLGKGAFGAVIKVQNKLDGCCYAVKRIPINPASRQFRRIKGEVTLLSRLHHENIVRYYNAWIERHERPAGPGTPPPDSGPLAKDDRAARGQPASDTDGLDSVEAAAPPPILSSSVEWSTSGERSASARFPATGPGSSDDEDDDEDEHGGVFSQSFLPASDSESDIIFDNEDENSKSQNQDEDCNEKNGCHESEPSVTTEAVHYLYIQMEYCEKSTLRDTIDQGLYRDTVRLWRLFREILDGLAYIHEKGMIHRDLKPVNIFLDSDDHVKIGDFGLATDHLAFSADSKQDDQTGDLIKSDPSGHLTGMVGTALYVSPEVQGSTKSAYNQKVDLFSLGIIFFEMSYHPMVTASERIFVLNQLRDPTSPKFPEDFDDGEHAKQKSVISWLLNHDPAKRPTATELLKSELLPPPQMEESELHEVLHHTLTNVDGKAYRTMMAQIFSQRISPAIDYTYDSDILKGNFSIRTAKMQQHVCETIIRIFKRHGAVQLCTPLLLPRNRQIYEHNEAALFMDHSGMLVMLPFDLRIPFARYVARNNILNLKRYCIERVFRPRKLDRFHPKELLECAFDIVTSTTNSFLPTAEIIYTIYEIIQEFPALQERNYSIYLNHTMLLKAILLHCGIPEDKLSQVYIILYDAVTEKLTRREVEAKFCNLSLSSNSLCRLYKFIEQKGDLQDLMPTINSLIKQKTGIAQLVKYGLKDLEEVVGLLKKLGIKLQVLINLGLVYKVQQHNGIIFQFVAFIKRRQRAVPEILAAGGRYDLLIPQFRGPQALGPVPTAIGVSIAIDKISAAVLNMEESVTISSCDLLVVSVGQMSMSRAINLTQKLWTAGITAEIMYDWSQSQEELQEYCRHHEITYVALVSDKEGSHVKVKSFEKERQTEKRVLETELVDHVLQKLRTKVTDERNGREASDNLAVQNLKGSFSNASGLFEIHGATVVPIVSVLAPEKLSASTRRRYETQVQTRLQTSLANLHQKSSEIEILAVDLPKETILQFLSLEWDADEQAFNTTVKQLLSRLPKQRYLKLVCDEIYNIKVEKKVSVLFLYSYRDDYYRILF

Structure (SMILES) | IC50 (GCN2 kinase) [nM] | IC50 (PERK kinase) [nM] | IC50 (CCRF-CEM leukemia cells) [nM] | IC50 [1] [nM] | IC50 [2] [nM] | IC50 [3] [nM] | H929 NS ATF4 ELISA (fold stimulation of ATF4 relative to vehicle) [4]
CNc1cc2nc(C)c(-c3cc(F)cc(NS(=O)(=O)c4cc(Cl)cc(CO)c4Cl)c3)cc2cn1 [Example 25] | ≤ 100 | ≤ 100 | ≤ 100 | ≤ 100 | ≤ 100 | 1000 to 10000 | ++ (“++” refers to an ATF4 stim greater than 5 fold and less than or equal to 10 fold)
CNc1cc2nc(C)c(-c3cccc(NS(=O)(=O)c4cc(Cl)cnc4OC)c3F)cc2cn1 [Example 31] | ≤ 100 | ≤ 100 | ≤ 100 | ≤ 100 | ≤ 100 | 1000 to 10000 | ++ (“++” refers to an ATF4 stim greater than 5 fold and less than or equal to 10 fold)
CNc1ncc2cc(-c3cc(NS(=O)(=O)c4cc(Cl)cnc4OC)cc(F)c3F)c(NC)nc2n1 [Example 49] | ≤ 100 | 100 to 500 | ≤ 100 | ≤ 100 | 100 to 500 | 1000 to 10000 | + (“+” refers to an ATF4 stim less than or equal to 5-fold)
CNc1ncc2cc(-c3cccc(NS(=O)(=O)c4cc(Cl)cnc4OC)c3C(F)(F)F)ccc2n1 [Example 79] | 100 to 500 | 100 to 500 | – | – | – | – | +++ (“+++” refers to an ATF4 stim greater than 10 fold and less than or equal to 20 fold)
COc1ncc(Cl)cc1S(=O)(=O)Nc1cc(F)cc(-c2cnc3nc(N)ncc3c2)c1 [Example 86] | 1000 to 10000 | 1000 to 10000 | – | – | – | – | +++ (“+++” refers to an ATF4 stim greater than 10 fold and less than or equal to 20 fold)
CNc1nc2nc(N)ncc2cc1-c1cccc(NS(=O)(=O)c2cc(Cl)cnc2OC)c1F [Example 109, N-(3-(2-amino-7-(methylamino)pyrido[2,3-d]pyrimidin-6-yl)-2-fluorophenyl)-5-chloro-2-methoxypyridine-3-sulfonamide] | ≤ 100 | 100 to 500 | ≤ 100 | ≤ 100 | ≤ 100 | 500 to 1000 | +++ (“+++” refers to an ATF4 stim greater than 10 fold and less than or equal to 20 fold)
CNc1nc2nc(Nc3cnn(C)c3)ncc2cc1-c1cccc(NS(=O)(=O)c2cc(Cl)cnc2OC)c1F [Example 110] | ≤ 100 | ≤ 100 | ≤ 100 | ≤ 100 | ≤ 100 | 100 to 500 | ++ (“++” refers to an ATF4 stim greater than 5 fold and less than or equal to 10 fold)
CNc1cc2nc(N)c(-c3cccc(NS(=O)(=O)c4cc(Cl)cnc4OC)c3F)cc2cn1 [Example 128] | ≤ 100 | ≤ 100 | ≤ 100 | ≤ 100 | ≤ 100 | ≤ 100 | +++ (“+++” refers to an ATF4 stim greater than 10 fold and less than or equal to 20 fold)
CNc1cc2nc(OC)c(-c3cccc(NS(=O)(=O)c4cc(Cl)cnc4OC)c3F)cc2cn1 [Example 129] | ≤ 100 | ≤ 100 | ≤ 100 | ≤ 100 | ≤ 100 | 1000 to 10000 | –
CNc1ncc2cc(-c3cccc(NS(=O)(=O)c4cc(Cl)c(OC)cc4Cl)c3F)c(NC)nc2n1 [Example 132] | ≤ 100 | ≤ 100 | ≤ 100 | ≤ 100 | ≤ 100 | 500 to 1000 | –
COc1nc2nc(N)ncc2cc1-c1ccnc(NS(=O)(=O)c2cc(Cl)cnc2OC)c1F [Example 135] | ≤ 100 | 100 to 500 | 500 to 1000 | 100 to 500 | 1000 to 10000 | 1000 to 10000 | –
CNc1ncc2cc(-c3ccnc(NS(=O)(=O)c4cc(Cl)cnc4OC)c3F)c(OC)nc2n1 [Example 136] | ≤ 100 | 100 to 500 | 100 to 500 | ≤ 100 | 100 to 500 | 1000 to 10000 | –
CNc1ncc2cc(-c3cccc(NS(=O)(=O)c4cc(Cl)cnc4NC4CC4)c3F)c(NC)nc2n1 [Example 137] | ≤ 100 | 100 to 500 | ≤ 100 | ≤ 100 | ≤ 100 | 1000 to 10000 | –
CNc1cc2nc(C)c(-c3cc(NS(=O)(=O)c4cc(Cl)cnc4OC)cc(F)c3F)cc2cn1 [Example 143] | ≤ 100 | ≤ 100 | ≤ 100 | ≤ 100 | ≤ 100 | 1000 to 10000 | –
CNc1ncc2cc(-c3cccc(NS(=O)(=O)c4cc(Cl)ccc4OC)c3F)c(NC)nc2n1 [Example 148] | ≤ 100 | ≤ 100 | ≤ 100 | ≤ 100 | ≤ 100 | 1000 to 10000 | –
CNc1ncc2cc(-c3cccc(NS(=O)(=O)c4cccc(CO)c4Cl)c3F)c(NC)nc2n1 [Example 151] | ≤ 100 | 100 to 500 | ≤ 100 | ≤ 100 | ≤ 100 | 100 to 500 | ++ (“++” refers to an ATF4 stim greater than 5 fold and less than or equal to 10 fold)
CNc1nc2nc(NC(C)=O)ncc2cc1-c1cccc(NS(=O)(=O)c2cc(Cl)cnc2OC)c1F [Example 158] | ≤ 100 | 100 to 500 | ≤ 100 | ≤ 100 | ≤ 100 | 1000 to 10000 | –
Cc1nc2cc(N)ncc2cc1-c1cccc(NS(=O)(=O)c2cc(Cl)cc(CO)c2Cl)c1F [Example 174] | – | – | ≤ 100 | – | – | ≤ 100 | +++ (“+++” refers to an ATF4 stim greater than 10 fold and less than or equal to 20 fold)
CNc1ncc2cc(-c3cccc(NS(=O)(=O)c4cc(Cl)cc(CO)c4Cl)c3F)c(NC)nc2n1 [Example 175] | ≤ 100 | ≤ 100 | ≤ 100 | – | – | 100 to 500 | +++ (“+++” refers to an ATF4 stim greater than 10 fold and less than or equal to 20 fold)
CNc1ncc2cc(-c3cccc(NS(=O)(=O)c4cc(Cl)cc(CO)c4OC)c3F)c(NC)nc2n1 [Example 179] | ≤ 100 | ≤ 100 | ≤ 100 | – | – | 100 to 500 | +++ (“+++” refers to an ATF4 stim greater than 10 fold and less than or equal to 20 fold)
